Laboratory results as given in patent EP2229935A1, “Peptide derivatives or pharmaceutically acceptable salts thereof, method for producing the same, use of said derivatives and pharmaceutical composition” (Nebolsin, Vladimir Evgenievich, priority 1997, dated 1999).
Read-outs that look alike come from different tables or passages of the source. Marks after values point to notes of the source that are not given here.

What was measured:
hydroxyl radical = test: Hydroxyl radical formation in the Fenton reagent (chemiluminescence); assay type: biochemical
Protocol: Active oxygen forms (AOF) of different nature were generated in the following systems: • A. Hydroxyl radical - in the mixture of FeSO4 with H2O2 (the Fenton reagent) [Halliwell B. Superoxide-dependent formation of hydroxyl radicals in the presence of iron salts. […] Incubation medium comprised 5 mM KH2PO4 (pH 7.4); 5 mM FeSO4; 2 mM luminol. H2O2 at final concentration 5 mM was introduced into a cuvette through a dispencer following background luminescence recording of the reagents' mixture. 5 to 10 ml of the test compounds dissolved in water were at needed concentration introduced into a cuvette.
CL flash recording duration after mixing ingredients, depended on a particular process kinetics. For each system, CL light sum (mV) was determined in the control samples without preparations (I-) and in samples comprising respective concentrations of preparations (I+). To estimate CL inhibition (activation) degree, the I+/I- ratio (in relative units) was found in the studied systems.
When H2O2 was introduced into phosphate buffer comprising iron sulfate, CL flash occured which was caused by formation of predominantly hydroxyl radical in the reaction mixture.

superoxide anion-radical = test: Superoxide anion-radical formation in the xantine-xantine oxidase system (chemiluminescence); assay type: biochemical
Protocol: Effect of the compounds of general formula (I) on change in chemiluminescence (CL) determined by hydroxyl radical ( OH) and superoxide anion-radical (O2-), in the model chemical and enzymatic systems.
5 to 10 ml of the test compounds dissolved in water were at needed concentration introduced into a cuvette. A total sample volume was 0.5 ml. • B. Superoxide anion-radical in the mixture of xantine and xantine oxidase [Afanas'ev I., Suslova T., Cheremisina Z. et al. Study of antioxidant properties of metal aspartates.
Incubation medium comprised 5 mM KH2PO4; 0.2 IU/ml xantine oxidase. Xantine at concentration 1 mM was introduced into sample through a dispencer. Luceginine (0.2 mM) was used in this system as luminiscence sensitizer.
CL signal indication was performed by its integration every 10 seconds for 5 minutes. CL flash recording duration after mixing ingredients, depended on a particular process kinetics. For each system, CL light sum (mV) was determined in the control samples without preparations (I-) and in samples comprising respective concentrations of preparations (I+). To estimate CL inhibition (activation) degree, the I+/I- ratio (in relative units) was found in the studied systems.
AOF formation and effect of the test compounds on this process were recorded on the Luminometer-1251 instrument (LKB, Sweden).
Because of such "distension" of the kinetic curve, chemiluminescence light sum was recorded during the first 3-5 minutes which reflected a total amount of light quantums produced in the system till achieving the maximum CL intensity values.

[1] = system: Lewis pulmonary carcinoma (LLC); test: Lewis pulmonary carcinoma growth; assay type: in vivo; conditions: mice with LLC, day 12; for Growth inhibition percent: compound in drinking water; for Tumor volume (mm^3): compound in drinking water from 24 hours after transplantation
Protocol: Experiments were carried out on male mice with initial body mass 18-20 g. Each group included 10 animals. […] Administration of compounds II, III, IX, X, XII, XIV, XV, XVI, XVII, XIX, XXII, XLVII in drinking water was commenced 24 hours following transplantation and continued till the end of experiment. Effect of the compounds on Lewis rat pulmonary carcinoma (LLC) was estimated by day 12 of experiment by change in tumor volume expressed in mm^3.

[2] = system: hepatic P-450 cytochrome system; test: Hexenal sleep duration in mice; assay type: in vivo; conditions: CBF1 mice; oral 3 days, 500 µg/kg; control 25.91 ± 1.57
Protocol: Change in Hexenal sleep (HS) duration is the in vivo measurable index of hepatic P-450 cytochrome system condition.
Studies were carried out on male mice of the lines BALB/c*h75, C57B1/6, CBA, DBA/2, first generation CBF1 and BDF1 hybrides, with initial mass 18-20 g, each group including 10 mice; and on mongrel male guinea pigs with initial mass 250-300 g, each group including 24 animals. All the test compounds (from II to LII) were administered orally in drinking water and for three days at doses 50 and 500 µg/kg. Hexenal hydrochloride at a dose […] of animal mass was administered 24 hours after the last drug administration, except for line BALB/c*h75 mice, which were administered Hexenal at a dose 60 µg/kg at the same terms, and guinea pigs for which Hexenal dose was 30 µg/kg. HS duration was determined in minutes.

[3] = system: Strain Aichi of type A human influenza virus; assay type: in vivo; conditions: for Survival rate in percent: series with Control - 2 (34.5); for Protection degree in percent: series with Control - 2
mongrel male rats = test: Hypolipidemic activity: experimental hyperlipidemia (atherogenic load); conditions: atherogenic diet; for Kcs: cholesterol index;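 on all read-outs here: serum drawn 18 h after the final dose from rats deprived of food over that interval, groups of 10 animals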
[4] = 0.01 mM, control of the series as in the table
[5] = 0.1 mM, control of the series as in the table
[6] = 1 mM, control of the series 7839 ± 171, 1120 ± 163, 4974 ± 283 or 1332 ± 172
[7] = 1 mM, control of the series 5616 ± 173, 5391 ± 195, 7290 ± 128 or 6776 ± 150
[8] = series with Control - 2 (9.1), […]
[9] = blood, oral last four days, 50 µg/kg
[10] = blood, oral last four days, 500 µg/kg
[11] = blood serum, 10 µg/kg for 10 days

O=C(O)CCCC(=O)NCCc1ccccc1 [XXI]
relative effect: I+/I- (hydroxyl radical; 0.01 mM): 0.81
Chemiluminiscence intensity (mV) + σn-1 (hydroxyl radical; [4]): 4036 ± 186 mV
relative effect: I+/I- (hydroxyl radical; 0.1 mM): 0.66
Chemiluminiscence intensity (mV) + σn-1 (hydroxyl radical; [5]): 3265 ± 184 mV
relative effect: I+/I- (hydroxyl radical; 1 mM): 0.05
Chemiluminiscence intensity (mV) + σn-1 (hydroxyl radical; [6]): 228 ± 72 mV
relative effect: 1+/I- (superoxide anion-radical; 0.1 mM): 0.89
Chemiluminiscence intensity (mV) + σn-1 (superoxide anion-radical; [5]): 6460 ± 166 mV
relative effect: 1+/I- (superoxide anion-radical; 1 mM): 0.58
Chemiluminiscence intensity (mV) + σn-1 (superoxide anion-radical; [7]): 4232 ± 146 mV
Growth inhibition percent [1]: 25%
Tumor volume (mm^3) [1]: 1023 ± 207 mm^3

CCCCCCCNC(=O)Cc1c[nH]cn1 [XXXIII, N-(IMIDAZOLYL-4-ACETHYL)-HEPTHYLAMINE]
Hexenal sleep duration (minutes) [2]: 19.82 ± 2.12* minutes
Survival rate in percent ([3]; 50 µg/kg orally): 63.3%
Survival rate in percent ([3]; 500 µg/kg orally): 76.6*^2%
Protection degree in percent ([3]; 50 µg/kg orally): 28.8%
Protection degree in percent ([3]; 500 µg/kg orally): 76.6%

COC(=O)[C@@H](N)CCC(=O)N[C@@H](Cc1c[nH]cn1)C(=O)O.Cl.Cl [compound XI, γ-L-GLUTAMYL HISTIDINE α-METHYL ETHER DICHLOROHYDRATE]
Hexenal sleep duration (minutes) [2]: 17.71 ± 0.66*** minutes
Chemiluminiscence intensity (mV) + σn-1 (hydroxyl radical; 1 µM, control of the series as in the table): 1116 ± 90 mV
Chemiluminiscence intensity (mV) + σn-1 (hydroxyl radical; [4]): 1124 ± 113 mV
relative effect: I+/I- (hydroxyl radical; 1 mM): 0.50
Chemiluminiscence intensity (mV) + σn-1 (hydroxyl radical; [6]): 557 ± 52 mV
relative effect: 1+/I- (superoxide anion-radical; 0.1 mM): 0.82
Chemiluminiscence intensity (mV) + σn-1 (superoxide anion-radical; [5]): 4621 ± 224 mV
relative effect: 1+/I- (superoxide anion-radical; 1 mM): 0.40
Chemiluminiscence intensity (mV) + σn-1 (superoxide anion-radical; [7]): 2263 ± 278 mV

NCCCC(=O)NCCc1c[nH]cn1 [compound XLVII, γ-Aminobutyrylhistamine]
Growth inhibition percent [1]: 45%
Tumor volume (mm^3) [1]: 826 ± 119* mm^3
MLT [3, 8]: 10.0 days
MLT, days [3, 8]: 13.0*^2 days
Survival rate in percent ([3]; 50 µg/kg orally): 83.3*^2%
Survival rate in percent ([3]; 500 µg/kg orally): 79.3*^2%
Protection degree in percent ([3]; 50 µg/kg orally): 48.8%
Protection degree in percent ([3]; 500 µg/kg orally): 44.8%
HDL-CS (mongrel male rats; [9]): 44,1±1,9**^A
LDL-CS+ VLDL-CS (mongrel male rats; [9]): 42,4±1,7***^A
Total CS (mongrel male rats; [9]): 86,5±3,9*^A
HDL-CS (mongrel male rats; [10]): 40,8±4,8
LDL-CS+ VLDL-CS (mongrel male rats; [10]): 50,8±3,6**^A
Total CS (mongrel male rats; [10]): 90,0±2,4
Triglycerides (mongrel male rats; [10]): 116,7±10,8*^A
Kcs (mongrel male rats; oral last four days, 50 µg/kg): 0,96±0,04***^A
Kcs (mongrel male rats; oral last four days, 500 µg/kg): 1,27±0,09

O=C(O)CCCC(=O)NCCc1c[nH]c2ccc(O)cc12 [compound XV, N-GLUTARYLSEROTONIN]
Growth inhibition percent [1]: 63%
Tumor volume (mm^3) [1]: 889 ± 67** mm^3

COc1ccc2[nH]cc(CCNC(=O)CCCC(=O)O)c2c1 [compound XVI, N-GLUTARYL-5-O-METHYLSEROTONIN]
Growth inhibition percent [1]: 56%
Tumor volume (mm^3) [1]: 1076 ± 69** mm^3

O=C(O)CCCC(=O)NCCc1ccccn1 [compound XX, N-GLUTARYL-2-(2-AMINOETHYL)PYRIDINE]
relative effect: I+/I- (hydroxyl radical; 0.01 mM): 0.85
Chemiluminiscence intensity (mV) + σn-1 (hydroxyl radical; [4]): 4205 ± 234 mV
relative effect: I+/I- (hydroxyl radical; 0.1 mM): 0.81
Chemiluminiscence intensity (mV) + σn-1 (hydroxyl radical; [5]): 4018 ± 201 mV
relative effect: I+/I- (hydroxyl radical; 1 mM): 0.11
Chemiluminiscence intensity (mV) + σn-1 (hydroxyl radical; [6]): 536 ± 124 mV
Growth inhibition percent [1]: 16%
Tumor volume (mm^3) [1]: 1148 ± 112 mm^3

O=C(O)c1cccnc1 [nicotinic acid, reference compound]
HDL-CS (mongrel male rats; [11]): 42.1 ± 4.2***^1.2
LDL-CS+ VLDL-CS (mongrel male rats; [11]): 25.7 ± 2.8***^2
Total-CS (mongrel male rats; [11]): 65.7 ± 3.5
Triglycerids (mongrel male rats; [11]): 89.4 ± 6.2***^2
Kcs (mongrel male rats; 10 µg/kg for 10 days): 0.56***^2
